Where “and” joins values, the source holds several entries; their conditions need not be identical. Equal values may be shown once.
Legend:
DR2w2b = system: DR2w2b; set-up: species or system human; conditions: read-out: Binding Activity DR2wB2, IC50
DRw53 = DRw53 (Homo sapiens, UniProt P01903+P13762); assay: biochemical; assay type: binding
DR3 = system: DR3; set-up: species or system human; conditions: read-out: Binding Activity DR3, IC50
DQ3.1 = system: DQ3.1; set-up: species or system human; conditions: read-out: Binding Activity DQ3.1, IC50
[1] = system: PBMC from normal individuals; assay: In vitro T cell proliferative responses of human PBMC ([3H]thymidine incorporation); assay type: cell-based; conditions: for AVERAGE S.I. / AVERAGE ΔMAX CPM: average of 5 donors; for X144 (Δmax cpm) / X144 S.I.: donor X144; for X162 (Δmax cpm) / X162 S.I.: donor X162; for X349 (Δmax cpm) / X349 S.I.: donor X349; for X372 (Δmax cpm) / X372 S.I.: donor X372; for X460 (Δmax cpm) / X460 S.I.: donor X460
DR5 = system: DR5; set-up: species or system human; conditions: read-out: Binding Activity DR5, IC50
IAk = IAk (Mus musculus, UniProt P01910+P06343); assay: biochemical
DR4w4 = DR4w4 (Homo sapiens, UniProt P01903+P01911, A100K/A169T/F76Y/I96L/K127E/L162R/M171V/N62H/P40V/Q125Y/R42H/S133A/S149N/S66Y/V115G/V209L/W38E); assay: biochemical; assay type: binding
P. yoelii sporozoites = assay: Inhibition of liver stage development assay (ILSDA), mouse hepatocytes infected with P. yoelii sporozoites; assay type: cell-based; conditions: sera of immunized mice, mouse hepatocytes
Experimental: (§1) In certain experiments, peptides were emulsified in complete Freund's adjuvant (CFA) and injected subcutaneously (S.C.) at the base of the tail in 100 μl volume containing 100 μg of peptide. Mice were boosted with 100 μg of peptide emulsified in 100 μl of incomplete Freund's adjuvant (IFA) 1 month later. Mice were bled just prior to boosting, and 2 weeks after boosting.
All cell culture reagents were obtained from quality Biological, Gaithersburg, Md. The slides were incubated overnight at 37° C. in a 5% CO2/95% air environment. The medium was changed the following day and fresh medium containing dexamethasone (7×10^−5) was added to the cultures.
(§2) The 17XNL (nonlethal) strain of P. yoelii or the NF54 strain of P. falciparum were used for murine and human hepatocyte in vitro infections, respectively.
(§3) Briefly, 25 μl of the serum samples, diluted to 2× their final concentration, were added to triplicate chamber-slide wells. P. yoeilli or P. falciparum sporozoites, 75,000/well, were then added in a volume of 25 μl to the mouse or human hepatocyte cultures respectively. The cultures were incubated for 3 h, then washed extensively with fresh medium to remove unattached sporozoites. The infected hepatocytes were then incubated for a further 2 (P. yoelii) or 5 days (P. falciparum) with the medium being changed each day of culture. The slides were fixed and immunostained with either a P. yoelii- or P. falciparum-specific monoclonal antibody. Schizonts were counted from the triplicate cultures and the percent inhibition determined as follows: control−test/control×100. Sera from mice injected with CFA (first dose) and IFA (second and third doses) served as the negative controls.

[2] = system: P. falciparum sporozoites; assay: Inhibition of liver stage development assay (ILSDA), human hepatocytes infected with P. falciparum sporozoites; assay type: cell-based; conditions: sera of C57BL/6 mice immunized with peptide in CFA/IFA, final dilution 1:100
Experimental: as §1
Human hepatocytes were isolated from nontransplantable liver tissue donated for research. […] The hepatocytes were allowed to attach and spread overnight with the media being changed the following day.
as §2, §3

[3] = system: P. yoelii 17XNL sporozoites; conditions: in vivo
[4] = system: air-dried P. yoelii sporozoites; conditions: in vivo

| Molecule | IC50 (DR2w2b) [nM] | IC50 (DR3) [nM] | IC50 (DQ3.1) [nM] | AVERAGE S.I. ([1]; 2nd Stimulation) | AVERAGE ΔMAX CPM ([1]; 2nd Stimulation) [cpm] | X144 (Δmax cpm) ([1]; 2nd Stimulation) [cpm] | X144 S.I. ([1]; 2nd Stimulation) | X162 (Δmax cpm) ([1]; 2nd Stimulation) [cpm] | X162 S.I. ([1]; 2nd Stimulation) | X349 (Δmax cpm) ([1]; 2nd Stimulation) [cpm] | X349 S.I. ([1]; 2nd Stimulation) | X372 (Δmax cpm) ([1]; 2nd Stimulation) [cpm] | X372 S.I. ([1]; 2nd Stimulation) | X460 (Δmax cpm) ([1]; 2nd Stimulation) [cpm] | X460 S.I. ([1]; 2nd Stimulation) | AVERAGE S.I. ([1]; 3rd Stimulation) | AVERAGE ΔMAX CPM ([1]; 3rd Stimulation) [cpm] | X144 (Δmax cpm) ([1]; 3rd Stimulation) [cpm] | X144 S.I. ([1]; 3rd Stimulation) | X162 (Δmax cpm) ([1]; 3rd Stimulation) [cpm] | also measured |
| --- | --- | --- | --- | --- | --- | --- | --- | --- | --- | --- | --- | --- | --- | --- | --- | --- | --- | --- | --- | --- | --- |
| CC(C)C[C@H](NC(=O)[C@@H](NC(=O)[C@H](Cc1ccc(O)cc1)NC(=O)[C@H](C)NC(=O)[C@H](C)NC(=O)[C@@H](NC(=O)[C@H](CC1CCCCC1)NC(=O)[C@H](CCCCN)NC(=O)[C@@H](C)N)C(C)C)[C@@H](C)O)C(=O)N[C@@H](CCCCN)C(=O)N[C@@H](C)C(=O)N[C@@H](C)C(=O)N[C@H](C)C(N)=O [965.09] | 7.4 | 250 | > 10000 | 1.9 | 12059 | 13693 | 1.8 | 10710 | 1.1 | 18079 | 3.8 | 17813 | 1.6 | 0 | 1 | 4.1 | 22599 | 14087 | 2.6 | 35635 | IC50 (DRw53): 86.4 nM; X162 S.I. ([1]; 3rd Stimulation): 5.2; X349 (Δmax cpm) ([1]; 3rd Stimulation): 31811 cpm; X349 S.I. ([1]; 3rd Stimulation): 5.5; X372 (Δmax cpm) ([1]; 3rd Stimulation): 29159 cpm; X372 S.I. ([1]; 3rd Stimulation): 4.4; X460 (Δmax cpm) ([1]; 3rd Stimulation): 2301 cpm; X460 S.I. ([1]; 3rd Stimulation): 2.9; IC50 (DR5): 5.4 nM |
| CC[C@H](C)[C@H](NC(=O)CNC(=O)[C@H](Cc1ccc(O)cc1)NC(=O)[C@H](CC(=O)O)NC(=O)[C@@H](NC(=O)[C@H](CO)NC(=O)CNC(=O)[C@H](CC(=O)O)NC(=O)[C@@H](NC(=O)[C@H](CC(N)=O)NC(=O)[C@@H](N)Cc1ccc(O)cc1)[C@@H](C)O)[C@@H](C)O)C(=O)N[C@@H](CC(C)C)C(=O)N[C@@H](CCC(N)=O)C(=O)N[C@H](C(=O)N[C@@H](CC(N)=O)C(=O)N[C@@H](CO)C(=O)N[C@@H](CCCNC(=N)N)C(=O)O)[C@@H](C)CC [HEL 46-61] | – | – | – | – | – | – | – | – | – | – | – | – | – | – | – | – | – | – | – | – | IC50 (IAk): 20 nM |
| CC(C)C[C@H](NC(=O)[C@@H](NC(=O)[C@H](CCCCN)NC(=O)[C@H](C)NC(=O)[C@H](C)NC(=O)[C@@H](NC(=O)[C@H](CC1CCCCC1)NC(=O)[C@H](CCCCN)NC(=O)[C@@H](C)N)C(C)C)[C@@H](C)O)C(=O)N[C@@H](CCCCN)C(=O)N[C@@H](C)C(=O)N[C@@H](C)C(=O)N[C@H](C)C(N)=O [965.14] | 8 | 781 | > 10000 | 1.5 | 5523 | 3570 | 1.1 | 4655 | 2.1 | 4421 | 1.3 | 10608 | 1.4 | 4365 | 1.4 | 2 | 10583 | 4319 | 2.3 | 10734 | IC50 (DR4w4): 7.4 nM; IC50 (DRw53): 52.8 nM; X162 S.I. ([1]; 3rd Stimulation): 1.7; X349 (Δmax cpm) ([1]; 3rd Stimulation): 17849 cpm; X349 S.I. ([1]; 3rd Stimulation): 2; X372 (Δmax cpm) ([1]; 3rd Stimulation): 19140 cpm; X372 S.I. ([1]; 3rd Stimulation): 2.1; X460 (Δmax cpm) ([1]; 3rd Stimulation): 874 cpm; X460 S.I. ([1]; 3rd Stimulation): 2; IC50 (DR5): 3.4 nM |
| CC(C)C[C@H](NC(=O)[C@@H](NC(=O)[C@H](CC(N)=O)NC(=O)[C@H](C)NC(=O)[C@H](C)NC(=O)[C@@H](NC(=O)[C@H](CC1CCCCC1)NC(=O)[C@H](CCCCN)NC(=O)[C@@H](C)N)C(C)C)[C@@H](C)O)C(=O)N[C@@H](CCCCN)C(=O)N[C@@H](C)C(=O)N[C@@H](C)C(=O)N[C@H](C)C(N)=O [965.08] | 3.8 | 250 | > 10000 | 1.7 | 11208 | 8440 | 1.3 | 9234 | 2.6 | 9065 | 1.8 | 23017 | 1.6 | 6286 | 1.4 | 2 | 12070 | 3559 | 1.4 | 14622 | X162 S.I. ([1]; 3rd Stimulation): 2.3; X349 (Δmax cpm) ([1]; 3rd Stimulation): 31639 cpm; X349 S.I. ([1]; 3rd Stimulation): 2.8; X372 (Δmax cpm) ([1]; 3rd Stimulation): 8710 cpm; X372 S.I. ([1]; 3rd Stimulation): 1.9; X460 (Δmax cpm) ([1]; 3rd Stimulation): 1820 cpm; X460 S.I. ([1]; 3rd Stimulation): 1.6; IC50 (DR5): 8 nM |
| (NANP)4 [PfB] | – | – | – | – | – | – | – | – | – | – | – | – | – | – | – | – | – | – | – | – | % Inhibition (P. yoelii sporozoites; dilution 1:100): 13.4%; Mean schizonts/well + S.D. (P. yoelii sporozoites; dilution 1:100): 71 ± 7 schizonts/well; % Inhibition (P. yoelii sporozoites; dilution 1:200): 6.2%; Mean schizonts/well + S.D. (P. yoelii sporozoites; dilution 1:200): 76 ± 7 schizonts/well; % Inhibition [2]: 80% and 79.7%; Mean schizonts/well ± S.D. [2]: 15.6 ± 8.7 schizonts/well |
| G(QGPGAP)4 [PyB] | – | – | – | – | – | – | – | – | – | – | – | – | – | – | – | – | – | – | – | – | % Protected [3]: 12.5%; Infected/challenged [3]: 7/8; levels of antibodies against sporozoites and the PyCSP (immunogenicity, in words) [4]: poorly immunogenic; % Inhibition (P. yoelii sporozoites; dilution 1:100): 50%; Mean schizonts/well + S.D. (P. yoelii sporozoites; dilution 1:100): 41 + 3.8 schizonts/well; % Inhibition (P. yoelii sporozoites; dilution 1:200): 43.2%; Mean schizonts/well + S.D. (P. yoelii sporozoites; dilution 1:200): 46 + 4 schizonts/well; Mean schizonts/well ± S.D. [2]: 70 ± 14 schizonts/well |
| CC(C)C[C@H](NC(=O)[C@@H](NC(=O)[C@H](Cc1c[nH]cn1)NC(=O)[C@H](C)NC(=O)[C@H](C)NC(=O)[C@@H](NC(=O)[C@H](CC1CCCCC1)NC(=O)[C@H](CCCCN)NC(=O)[C@@H](C)N)C(C)C)[C@@H](C)O)C(=O)N[C@@H](CCCCN)C(=O)N[C@@H](C)C(=O)N[C@@H](C)C(=O)N[C@H](C)C(N)=O [965.15] | 5.4 | 1390 | > 10000 | 1.8 | 7920 | 7179 | 1.4 | 8461 | 3.4 | 10848 | 1.8 | 10011 | 1.3 | 3100 | 1.2 | 2.5 | 15462 | 13055 | 2.4 | 12309 | IC50 (DRw53): 79.2 nM; X162 S.I. ([1]; 3rd Stimulation): 1.6; X349 (Δmax cpm) ([1]; 3rd Stimulation): 20653 cpm; X349 S.I. ([1]; 3rd Stimulation): 2.4; X372 (Δmax cpm) ([1]; 3rd Stimulation): 30810 cpm; X372 S.I. ([1]; 3rd Stimulation): 4.7; X460 (Δmax cpm) ([1]; 3rd Stimulation): 486 cpm; X460 S.I. ([1]; 3rd Stimulation): 1.2; IC50 (DR5): 29.9 nM |
